Legend:
endometriosis = assay: Sequential treatment of endometriosis with an LHRH agonist and J867; assay type: in vivo, human
Procedure: Women with endometriosis are treated for 2-3 months with an LHRH agonist such as Lupron. After the cessation of LHRH-agonist therapy women are treated for the next 3-6 months with J 867 in order to avoid osteoprorosis induced by prolonged treatment with LHRH agonist. During treatment with 5-50 mg J 867 the therapeutic effects of the LHRH-agonist are maintained.

uterine fibroids = assay: Treatment of uterine fibroids (Example 5); assay type: in vivo, human; details: 3-6 months, 5-50 mg
[1] = as described in DE 43 32 283 / DE 43 32 284; cited from earlier work

SMILES: COC[C@]1(OC)CC[C@H]2[C@@H]3CCC4=CC(=O)CCC4=C3[C@@H](c3ccc(/C=N/O)cc3)C[C@@]21C [J867, 4-[17β-Methoxy-17α-(methoxymethyl)-3-oxoestra-4,9-dien-11β-yl]benzaldehyd-(1E)-oxim]
- therapeutic effects of the LHRH-agonist during following treatment (endometriosis; 5-50 mg for 3-6 months after 2-3 months LHRH agonist): maintained
- estrogen deficiency (endometriosis; women with endometriosis): does not produce estrogen deficiency
- pelvic pain during treatment (uterine fibroids): reduction of pelvic pain was observed
- antiglucocorticoid activity compared to RU 486 [1]: markedly reduced
